PubChem BioAssay (NCI)
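In this assay, cells in 96-well plates receive the compound at five concentrations for 48 hours. Endpoints are linearly interpolated between the surrounding concentrations. At the GI50, growth is halved. Definition used: TGI = concentration required for complete inhibition of growth.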

Tests used:
Experiment in all cases: NCI anticancer screen, dose series, 48 h
786-0 renal = system: 786-0 renal
EKVX NSCLC = system: EKVX NSCLC
HT29 colon = system: HT29 colon
MALME-3M melanoma = system: MALME-3M melanoma
OVCAR-5 ovarian = system: OVCAR-5 ovarian
SN12C renal = system: SN12C renal
IGROV1 ovarian = system: IGROV1 ovarian
K-562 leukemia = system: K-562 leukemia
SR leukemia = system: SR leukemia
UACC-62 melanoma = system: UACC-62 melanoma

| Compound | TGI (786-0 renal) | TGI (EKVX NSCLC) | TGI (HT29 colon) | TGI (MALME-3M melanoma) | TGI (OVCAR-5 ovarian) | TGI (SN12C renal) | GI50 (786-0 renal) | GI50 (HT29 colon) | GI50 (IGROV1 ovarian) | TGI (IGROV1 ovarian) | GI50 (K-562 leukemia) | TGI (K-562 leukemia) | GI50 (MALME-3M melanoma) | GI50 (OVCAR-5 ovarian) | GI50 (SN12C renal) | GI50 (SR leukemia) | TGI (SR leukemia) | GI50 (UACC-62 melanoma) | TGI (UACC-62 melanoma) | GI50 (EKVX NSCLC) |
| --- | --- | --- | --- | --- | --- | --- | --- | --- | --- | --- | --- | --- | --- | --- | --- | --- | --- | --- | --- | --- |
| O=C(O)c1oc2ccc([N+](=O)[O-])c3c2c1CCC3 | > 100 µM | > 100 µM | > 100 µM | > 100 µM | > 100 µM | > 100 µM | – | – | – | – | – | – | – | – | – | – | – | – | – | – |
| CN1C=CN(Cc2ccc(-c3ccccn3)nc2)[CH-]1.CN1C=CN(Cc2ccc(-c3ccccn3)nc2)[CH-]1.[Au+3] | > 100 µM | – | > 100 µM | 10.5 µM | 27.3 µM | > 45 µM | 6.14 µM | 1.96 µM | 1.42 µM | 10.3 µM | 0.54 µM | > 100 µM | 2.21 µM | 5.84 µM | 2.98 µM | 0.372 µM | 42.7 µM | 1.4 µM | 6.67 µM | – |
| COc1cc(Nc2ncc(-c3ccccc3)o2)cc(OC)c1OC | > 25 µM | > 25 µM | > 25 µM | > 25 µM | > 25 µM | > 25 µM | 5.13 µM | 0.951 µM | 1.28 µM | > 25 µM | 0.401 µM | > 25 µM | 6.29 µM | 3.88 µM | 6.35 µM | – | – | 2.24 µM | > 25 µM | > 6.86 µM |
| NC(=O)c1ccc(-c2c3ccccc3cc3c2ccc2ccccc23)cc1 | 14.8 µM | > 100 µM | – | 54 µM | > 100 µM | – | 3.64 µM | – | 7.6 µM | > 100 µM | 1.5 µM | > 100 µM | 4.99 µM | 14.3 µM | – | 1.3 µM | > 100 µM | 4.32 µM | 40.2 µM | 9.35 µM |
| C[Si](C)(C)[C@@]1([Se]c2ccccc2)CC[C@@H]1C(=O)c1ccccc1 | > 100 µM | > 100 µM | > 100 µM | > 100 µM | > 100 µM | > 100 µM | – | – | – | > 100 µM | – | > 100 µM | – | – | – | – | – | – | > 100 µM | – |
| C(=C1/CCCCC([n+]2ccccc2)=N1)/c1ccccc1 | > 100 µM | > 100 µM | > 100 µM | > 100 µM | > 100 µM | > 100 µM | – | – | – | – | – | > 100 µM | – | – | – | – | > 100 µM | – | > 100 µM | – |
| CC12CC(=O)NN=C1c1ccccc1C2 (stereo unspecified) | > 100 µM | > 100 µM | > 100 µM | > 100 µM | > 100 µM | > 100 µM | – | – | – | > 100 µM | – | > 100 µM | – | – | – | – | – | – | > 100 µM | – |
| O=C(O)C1C2CC3CC2CC31 (stereo unspecified) | > 100 µM | > 100 µM | – | > 100 µM | > 100 µM | > 100 µM | – | – | – | > 100 µM | – | > 100 µM | – | – | – | – | – | – | > 100 µM | – |
| ClCc1ccc(Cn2cnc3ncnc(Cl)c32)cc1 | 3.05 µM | 4.45 µM | 3.59 µM | – | 19.7 µM | 14.9 µM | 1.68 µM | 1.22 µM | 7.61 µM | 31.1 µM | 3.03 µM | > 100 µM | – | 6.26 µM | 3.61 µM | 0.822 µM | 2.7 µM | 2.5 µM | 12 µM | 2.25 µM |
